Assay results as given in patent US8124617B2, “Imidazopyridine compounds” (Takeda San Diego, Inc., priority 2005, dated 2012).

Target: T1, glucokinase (residues 12-465 of the human enzyme) (Homo sapiens, UniProt P35557)
T1 construct: FLAG (vector pFLAG-CTC) (C); made in house; host or cells: E. coli DH10b-T1r (pFLAG-CTC)
T1 sequence (P35557 12-465): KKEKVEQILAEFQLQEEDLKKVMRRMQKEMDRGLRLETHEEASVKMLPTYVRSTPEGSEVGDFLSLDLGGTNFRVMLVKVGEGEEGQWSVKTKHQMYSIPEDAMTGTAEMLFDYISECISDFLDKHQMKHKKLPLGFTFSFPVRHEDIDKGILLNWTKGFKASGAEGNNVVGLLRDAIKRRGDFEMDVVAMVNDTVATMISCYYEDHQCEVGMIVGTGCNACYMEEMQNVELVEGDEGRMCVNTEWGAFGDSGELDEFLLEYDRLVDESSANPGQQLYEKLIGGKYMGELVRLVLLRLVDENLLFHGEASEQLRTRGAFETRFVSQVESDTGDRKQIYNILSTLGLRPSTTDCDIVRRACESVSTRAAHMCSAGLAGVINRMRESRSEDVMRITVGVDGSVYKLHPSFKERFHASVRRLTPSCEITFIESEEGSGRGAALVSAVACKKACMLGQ
Test: Measurement of GK activation value (ATP/glucose, luciferase luminescence)
Format: biochemical
Conditions: values given as ranges; for EC50: Kact = concentration that displays 50% of the maximal increase in GK activity, room temperature, 60 min, read-out: pKact; for Emax: calculated maximal gain in GK enzyme activity at a saturating concentration of the compound, read-out: % ACTmaxc
From the text: Purified glucokinase may be obtained as follows. DNA encoding residues 12-465 of the full-length sequence of the human enzyme may be amplified by PCR and cloned into the HindIII and EcoRI sites of pFLAG-CTC (Sigma). SEQ ID No. 5 corresponds to residues 12-465 of glucokinase.
The expression of recombinant glucokinase protein may be carried out by transformation and growth of DH10b-T1r E. coli cells incorporating the (pFLAG-CTC) plasmid in LB media. Protein expression can be induced in this system by the addition of IPTG to the culture medium.
Recombinant protein may be isolated from cellular extracts by passage over Sepharose Q Fast Flow resin (Pharmacia). This partially purified GK extract may then be further purified by a second passage over Poros HQ10 (Applied Biosystems). The purity of GK may be determined on denaturing SDS-PAGE gel. Purified GK may then be concentrated to a final concentration of 20.0 mg/ml. After flash freezing in liquid nitrogen, the proteins can be stored at −78° C. in a buffer containing 25 mM TRIS-HCl pH 7.6, 50 mM NaCl, and 0.5 mM TCEP.
The assay reaction may be initiated as follows: 4 μl of substrate mixture (12.5 μM ATP and 12.5 mM Glucose) was added to each well of the plate, followed by the addition of 2 μl of activator (2 fold serial dilutions for 11 data points for each activator) containing 10% DMSO. 4 μL of 1.25 nM GK solution may be added to initiate the reaction. The reaction mixture may then be incubated at room temperature for 60 min, and quenched and developed by addition of 10 μL of luciferase reagent. Luminescence intensities of the resulting reaction mixtures may be measured after a 10 min incubation at room temperature. The luminescence intensity may be measured by using the Analyst HT from LJL Biosystems.
pKact and % ACTmax values may be calculated by non-linear curve fitting of the compound concentrations and luminescence intensities to a standard inhibition/activation equation.

Compound	EC50	Emax
CC(C)Oc1cc(OCCCc2ccccc2)cc(-c2nc3cccnc3[nH]2)c1 [Example 159, 2-(3-isopropoxy-5-(3-phenylpropoxy)phenyl)-3H-imidazo[4,5-b]pyridine]	398 to 1000 nM	20 to 29.9%
COC[C@@H](C)Oc1cc(OCc2ccccc2F)cc(-c2nc3cccnc3[nH]2)c1 [Example 172, (R)-2-(3-(2-fluorobenzyloxy)-5-(1-methoxypropan-2-yloxy)phenyl)-3H-imidazo[4,5-b]pyridine]	398 to 1000 nM	50 to 69.9%
COC[C@H](C)Oc1cc(OCc2ccccc2F)cc(-c2nc3cc(CCCO)cnc3[nH]2)c1 [Example 177, (S)-3-(2-(3-(2-fluorobenzyloxy)-5-(1-methoxypropan-2-yloxy)phenyl)-3H-imidazo[4,5-b]pyridin-6-yl)propan-1-ol]	398 to 1000 nM	20 to 29.9%
COC[C@H](C)Oc1cc(Oc2ccc(S(C)(=O)=O)cc2)cc(-c2nc3cccnc3[nH]2)c1 [Example 181, (S)-2-(3-(1-methoxypropan-2-yloxy)-5-(4-(methylsulfonyl)phenoxy)phenyl)-3H-imidazo[4,5-b]pyridine]	398 to 1000 nM	> 70%
Brc1cnc2[nH]c(-c3ccccc3Oc3ccccc3)nc2c1 [Example 188, 6-bromo-2-(2-phenoxyphenyl)-3H-imidazo[4,5-b]pyridine]	398 to 1000 nM	30 to 49.9%
CC(C)Oc1ccc(/C=C/c2ccccc2)cc1-c1nc2cccnc2[nH]1 [Example 196, (E)-2-(2-isopropoxy-5-styrylphenyl)-3H-imidazo[4,5-b]pyridine]	398 to 1000 nM	> 70%
Cn1ccnc1CNc1cc(NS(C)(=O)=O)cc(-c2nc3cc(Br)cnc3[nH]2)c1 [Example 214, N-(3-(6-bromo-3H-imidazo[4,5-b]pyridin-2-yl)-5-((1-methyl-1H-imidazol-2-yl)methylamino)phenyl)methanesulfonamide]	398 to 1000 nM	30 to 49.9%
Brc1cnc2[nH]c(-c3ccccc3Oc3cccnc3)nc2c1 [Example 244, 6-bromo-2-(2-(pyridin-3-yloxy)phenyl)-3H-imidazo[4,5-b]pyridine]	398 to 1000 nM	20 to 29.9%
Fc1ccccc1COc1cc(Oc2ncccn2)cc(-c2nc3cc(Br)cnc3[nH]2)c1 [Example 245, 6-bromo-2-(3-(2-fluorobenzyloxy)-5-(pyrimidin-2-yloxy)phenyl)-3H-imidazo[4,5-b]pyridine]	398 to 1000 nM	> 70%
COc1ccc(/C=C/c2ccncc2)cc1-c1nc2cccnc2[nH]1 [Example 246, (E)-2-(2-methoxy-5-(2-(pyridin-4-yl)vinyl)phenyl)-3H-imidazo[4,5-b]pyridine]	398 to 1000 nM	30 to 49.9%

Second part, the molecule after the results:

EC50	Emax	Compound
398 to 1000 nM	20 to 29.9%	CC(C)Oc1ccc(OCc2ccccc2)cc1-c1nc2cc(-c3cccc(F)c3)cnc2[nH]1 [Example 71, 2-[5-(benzyloxy)-2-isopropoxyphenyl]-6-(3-fluorophenyl)-3H-imidazo[4,5-b]pyridine]
126 to 316 nM	20 to 29.9%	CC(C)Oc1cc(OCc2ccccc2)cc(-c2nc3cccnc3[nH]2)c1 [Example 158, 2-(3-(benzyloxy)-5-isopropoxyphenyl)-3H-imidazo[4,5-b]pyridine]
< 100 nM	30 to 49.9%	CC(C)Oc1cc(OCCc2ccccc2)cc(-c2nc3cccnc3[nH]2)c1 [Example 161, 2-(3-isopropoxy-5-phenethoxyphenyl)-3H-imidazo[4,5-b]pyridine]
126 to 316 nM	> 70%	Cn1ccnc1COc1cc(OCc2ccccc2)cc(-c2nc3cccnc3[nH]2)c1 [Example 162, 2-(3-(benzyloxy)-5-((1-methyl-1H-imidazol-2-yl)methoxy)phenyl)-3H-imidazo[4,5-b]pyridine]
< 100 nM	50 to 69.9%	Cn1ccnc1COc1cc(OCc2ccccc2)cc(-c2nc3cc(Br)cnc3[nH]2)c1 [Example 163, 2-(3-(benzyloxy)-5-((1-methyl-1H-imidazol-2-yl)methoxy)phenyl)-6-bromo-3H-imidazo[4,5-b]pyridine]
126 to 316 nM	50 to 69.9%	Cn1ccnc1COc1cc(OCCc2ccsc2)cc(-c2nc3cc(Br)cnc3[nH]2)c1 [Example 164, 6-bromo-2-(3-((1-methyl-1H-imidazol-2-yl)methoxy)-5-(2-(thiophen-3-yl)ethoxy)phenyl)-3H-imidazo[4,5-b]pyridine]
< 100 nM	> 70%	Cn1ccnc1COc1cc(OCc2ccccc2F)cc(-c2nc3cccnc3[nH]2)c1 [Example 165, 2-(3-(2-fluorobenzyloxy)-5-((1-methyl-1H-imidazol-2yl)methoxy)phenyl)-3H-imidazo[4,5-b]pyridine]
< 100 nM	> 70%	Cn1ccnc1COc1cc(OCc2ccccc2F)cc(-c2nc3cc(Cl)cnc3[nH]2)c1 [Example 166, 6-chloro-2-(3-(2-fluorobenzyloxy)-5-((1-methyl-1H-imidazol-2-yl)methoxy)phenyl)-3H-imidazo[4,5-b]pyridine]
< 100 nM	> 70%	Cn1ccnc1COc1cc(OCc2ccccc2F)cc(-c2nc3cc(Br)cnc3[nH]2)c1 [Example 167, 6-bromo-2-(3-(2-fluorobenzyloxy)-5-((1-methyl-1H-imidazol-2-yl)methoxy)phenyl)-3H-imidazo[4,5-b]pyridine]
126 to 316 nM	> 70%	Cn1ccnc1COc1cc(OCc2ccccc2F)cc(-c2nc3cc(CCCO)cnc3[nH]2)c1 [Example 168, 3-(2-(3-(2-fluorobenzyloxy)-5-((1-methyl-1H-imidazol-2-yl)methoxy)phenyl)-3H-imidazo[4,5-]pyridin-6-yl)propan-1-ol]
126 to 316 nM	50 to 69.9%	COC[C@@H](C)Oc1cc(OCc2ccccc2F)cc(-c2nc3cc(Cl)cnc3[nH]2)c1 [Example 173, (R)-6-chloro-2-(3-(2-fluorobenzyloxy)-5-(1-methoxypropan-2-yloxy)phenyl)-3H-imidazo[4,5-b]pyridine]
126 to 316 nM	30 to 49.9%	COC[C@@H](C)Oc1cc(OCc2ccccc2F)cc(-c2nc3cc(Br)cnc3[nH]2)c1 [Example 174, (R)-6-bromo-2-(3-(2-fluorobenzyloxy)-5-(1-methoxypropan-2-yloxy)phenyl)-3H-imidazo[4,5-b]pyridine]
126 to 316 nM	30 to 49.9%	Cn1ccnc1CNc1cc(NS(=O)(=O)c2ccccc2)cc(-c2nc3cc(Br)cnc3[nH]2)c1 [Example 213, N-(3-(6-bromo-3H-imidazo[4,5-b]pyridin-2-yl)-5-((1-methyl-1H-imidazol-2-yl)methylamino)phenyl)benzenesulfonamide]
126 to 316 nM	30 to 49.9%	COc1ccc(OCc2ccccc2)cc1-c1nc2cc(Br)cnc2[nH]1 [Example 243, 2-(5-(benzyloxy)-2-methoxyphenyl)-6-bromo-3H-imidazo[4,5-b]pyridine]
